Read-outs that look alike come from different tables or passages of the source.
Columns and labels:
[1] = target: T1, A1 adenosine receptor (Rattus norvegicus, UniProt P25099); test: biochemical; conditions: rat whole brain membranes, 3H-CHA; Table II; read-out: Adenosine Receptor Binding Activity/IC50 (nM) A1
T1 sequence (P25099 1-326): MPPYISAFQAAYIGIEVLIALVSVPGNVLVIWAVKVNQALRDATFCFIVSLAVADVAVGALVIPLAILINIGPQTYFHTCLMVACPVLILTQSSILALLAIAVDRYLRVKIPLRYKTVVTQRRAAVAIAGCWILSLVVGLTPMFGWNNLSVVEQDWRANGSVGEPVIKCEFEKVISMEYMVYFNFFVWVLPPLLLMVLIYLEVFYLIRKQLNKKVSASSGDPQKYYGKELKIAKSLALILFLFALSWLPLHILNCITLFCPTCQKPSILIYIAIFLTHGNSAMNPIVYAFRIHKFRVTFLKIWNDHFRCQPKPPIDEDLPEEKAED
Protocol: Non-specific binding was assessed in the presence of 1 mM theophylline.
The assays were run in glass test tubes in duplicate at 25° C. Once the membranes were added, the tubes were vortexed and incubated at 25° C. for 60 minutes (A1 assay) or 90 minutes (A2 assay) on a rotary shaker. The assay tubes were vortexed halfway through the incubation and again near the end. The assays were terminated by rapid filtration through 2.4 cm GF/B filters using a Brandel Cell Harvestor. The test tubes were washed three times with cold 50 mM tris-HCl (pH 7.7 or 7.4), with filtration being completed within 15 seconds. The damp filter circles were placed in glass scintillation vials filled with 10 ml of Aquasol II (New England Nuclear). The vials were allowed to shake overnight on a rotary shaker and were placed into a liquid scintillation analyzer for two minute counts. IC50 values for receptor binding, i.e. the concentration at which a compound of the invention displaced the radiolabeled standard, were obtained using a curve-fitting computer program (RS/1, Bolt, Beranek and Newman, Boston, Mass.).

[2] = target: A2 adenosine receptor (Rattus norvegicus, UniProt P30543); test: biochemical; conditions: rat brain striatum membranes, 3H-CGS 21680; Table II; read-out: Adenosine Receptor Binding Activity/IC50 (nM) A2
A2 adenosine receptor, sequence (P30543 whole entry): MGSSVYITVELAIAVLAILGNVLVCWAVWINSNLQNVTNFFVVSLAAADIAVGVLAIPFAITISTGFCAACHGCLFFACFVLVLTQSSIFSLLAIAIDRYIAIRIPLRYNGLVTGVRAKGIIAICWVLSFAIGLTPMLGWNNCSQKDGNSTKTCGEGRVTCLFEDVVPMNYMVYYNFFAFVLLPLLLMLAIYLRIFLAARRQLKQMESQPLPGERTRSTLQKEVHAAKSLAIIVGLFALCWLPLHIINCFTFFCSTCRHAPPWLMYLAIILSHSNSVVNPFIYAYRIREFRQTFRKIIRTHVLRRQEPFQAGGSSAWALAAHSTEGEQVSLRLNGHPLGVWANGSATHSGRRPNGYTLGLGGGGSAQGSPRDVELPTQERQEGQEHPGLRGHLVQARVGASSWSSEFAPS

[3] = test system: swine coronary arteries; test: In vitro vasorelaxation in isolated swine coronary arteries (PGF2α-contracted rings); type: cell-based; conditions: Sus scrofa, Table II
Protocol: Swine coronary arteries were obtained from a local slaughter house, dissected carefully and cleaned of fat, blood and adhering tissue. Rings approximately 2-3 mm wide were cut and transferred to water-jacketed tissue baths (10 ml) filled with warm (37° C.), oxygenated (O2 /CO2 :95%/5%) Krebs-Henseleit buffer and mounted on L-shaped hooks between stainless steel rods and a force transducer. […] Rings were equilibrated for 90 minutes with frequent buffer changes at a resting tension of 5 g In order to assure optimal tension development, arterial rings were primed twice with 36 mM KCl and once with 10 μm. PGF2α, before being exposed to 3 μM PGF2α. […] Tension achieved with 3 μM PGF2α was considered .equivalent to 100%; all other values were expressed as a percentage of that maximum.

[4] = test system: normotensive anesthetized rat; test: In vivo mean arterial pressure and heart rate in normotensive anesthetized rat; conditions: iv
Protocol: Normotensive rats were anesthetized with sodium pentobarbital (50 mg/kg, j.p.) and placed on a heated surgical table. Cannulas were inserted into the femoral artery and […] to allow the measurement of arterial pressure and to facilitate the intravenous administration of test compounds. The animals was allowed to equilibrate for 10 minutes after surgery. Mean arterial pressure was continuously measured and recorded and heart rate was monitored using the arterial pressure pulse to trigger a cardiotachometer. After baseline parameters were established and recorded, increasing doses (1, 3, 10, 30, 100, 300 and 1000 μg/kg) of the compound of the invention to be tested were administered intravenously. Maximal changes in the cardiovascular parameters were observed after each dose of the adenosine agonist. Only one compound was administered per rat.

[5] = test system: spontaneously hypertensive rat (SHR); test: Oral antihypertensive activity in conscious spontaneously hypertensive rat (SHR); type: in vivo
Protocol: The oral antihypertensive activity of compounds of the invention were examined in conscious spontaneously hypertensive rats. The rats were anesthetized with sodium pentabarbatol (50 mg/kg i.p.). A telemetry transducer was implanted into the rats abdomen via midline incision. The cannula of the transducer was inserted into the abdomenal aorta to allow direct measurement of arterial pressure in the conscious SHR. The transducer was secured to the abdomenal wall. After recovery from surgery (minimum of seven days), the SHR were placed on a receiver plate and the transducer/transmitter was activated. Systolic, diastolic and mean arterial pressure and heart rate were recorded for 1.5 hours in the unrestrained conscious rat to establish a stable baseline. Each rat then received a single dose of the compound of the invention to be tested, or vehicle, and changes in arterial pressure and heart rate were monitored for 20 hours and recorded.

[6] = 50% reduction in tension, 3 μM PGF2α, read-out: Vasorelaxation in Swine Coronary Artery/IC50
[7] = dose lowering heart rate by 25%, read-out: Blood Press/Heart Rate Anesthetized Rat HR/ED25
[8] = dose lowering mean arterial pressure by 25%, read-out: Blood Press/Heart Rate Anesthetized Rat MAP/ED25

IC50 [1] [nM]	IC50 [2] [nM]	EC50 [3, 6] [µM]	SMILES	ED25 [4, 7] [µg/kg]	ED25 [4, 8] [µg/kg]	further results
1.6	23	0.072	CCNC(=O)[C@H]1C[C@@H](n2cnc3c(N[C@H](CC)Cc4sccc4Cl)ncnc32)[C@H](O)[C@@H]1O [Example 34]			
			CCNC(=O)[C@H]1C[C@@H](n2cnc3c(NCCc4scnc4C)ncnc32)[C@H](O)[C@@H]1O (relative stereo) [Example 24, (±)-N^6-[2-(4"-methyl-5"-thiazolyl)thyl]carbocyclic adenosine-5'-N-ethyl carboxamide]	> 10	6	SHR MAP/% ([5]; 5 mg/kg, D = decrease): 17%; SHR HR/% ([5]; 5 mg/kg, I = increase): 6%
36	1000	0.75	OC[C@H]1O[C@@H](n2cnc3c(NCc4nc(-c5ccccc5)cs4)ncnc32)[C@H](O)[C@@H]1O [Example 19]			
55	331	0.316	CCNC(=O)[C@H]1C[C@@H](n2cnc3c(N[C@H](C)Cc4ccc(Cl)s4)ncnc32)[C@@H]2OC(=O)O[C@@H]21 [Example 44, (2S)-2α,3α-dihydroxy-4β-[N6-[2-(5-chloro-2-thienyl)-(1R)-1-methylethyl]amino-9-adenyl]cyclopentane-1β-N-ethylcarboxamide-2,3-carbonate]			
7.4	> 1000		CCOc1ccc2nc(SCCNc3ncnc4c3ncn4[C@@H]3O[C@H](CO)[C@@H](O)[C@H]3O)sc2c1 [Example 11]			
166	52	0.46	Cc1csc(CNc2ncnc3c2ncn3[C@@H]2O[C@H](CO)[C@@H](O)[C@H]2O)n1 [Example 18, N^6-[2-(4'-methyl-2'-thiazolyl)-methyl]adenosine]	> 10	2	
> 1000	> 1000	19.1	CCNC(=O)[C@H]1C[C@@H](n2cnc3c(N[C@H](C)Cc4ccc(Cl)s4)ncnc32)[C@@H]2OC(C)(C)O[C@@H]21 [6(1), (-)-[2S-[2α,3α-dimethylmethylenedioxy-4-β-[N6-[2-(5-chloro-2-thienyl)-(1R)-1-methylethyl]amino]-9-adenyl]cyclopentane]-1-β-N-ethylcarboxamide]			
35.5	> 1000	22	CCNC(=O)[C@H]1C[C@@H](n2cnc3c(NCCNc4nc5ccccc5s4)ncnc32)[C@H](O)[C@@H]1O (relative stereo) [Example 29, (±)-N^6-[2-(2'-aminobenzothia-zolyl)ethyl]carbocyclic adenosine-5'-N-ethyl carboxamide]	31	16	SHR HR/% ([5]; 5 mg/kg, D = decrease): 12%; SHR MAP/% ([5]; 5 mg/kg, D = decrease): 18%
		0.043	CCNC(=O)[C@H]1C[C@@H](n2cnc3c(N[C@H](C)Cc4cccs4)ncnc32)[C@H](O)[C@@H]1O (single isomer, unassigned) [Example 27]			SHR MAP/% ([5]; 1 mg/kg, D = decrease): 27%; SHR HR/% ([5]; 1 mg/kg, I = increase): 1%
		4	OC[C@H]1O[C@@H](n2cnc3c(N[C@@H]4CCCC[C@H]4c4cccs4)ncnc32)[C@H](O)[C@@H]1O (relative stereo) [Example 7, N^6-[trans-2-(thiophen-2-yl)-cyclohex-1-yl]adenosine]	18	6	SHR HR/% ([5]; 5 mg/kg, D = decrease): 22%; SHR MAP/% ([5]; 5 mg/kg, D = decrease): 45%
		0.73	OC[C@H]1O[C@@H](n2cnc3c(N[C@@H]4CC=CC[C@H]4c4cccs4)ncnc32)[C@H](O)[C@@H]1O (relative stereo) [Example 4, N6-[trans-2-(thiophen-2-yl)cyclohex-4-en-yl]adenosine]	19	13	SHR HR/% ([5]; 5 mg/kg, D = decrease): 20%; SHR MAP/% ([5]; 5 mg/kg, D = decrease): 28%
0.049			C[C@H](Cc1sccc1Cl)Nc1ncnc2c1ncn2[C@@H]1O[C@H](CO)[C@@H](O)[C@H]1O [Example 32, N^6-[1-methyl-2-(3-chlorothien-2-yl)ethyl]adenosine]			
8.8	43.4	0.493	CCNC(=O)[C@H]1C[C@@H](n2cnc3c(N[C@H](C)Cc4ccc(Cl)s4)ccnc32)[C@H](O)[C@@H]1O [Example 36, [1S-[1α,2β,3β,4α(S*)]]-4-[7-[[2-(5-chloro-2-thienyl)-1-methylethyl]amino]-3 H-imidazo[4,5-b]pyridin-3-yl]-N-ethyl-2,3-dihydroxycyclopentanecarboxamide]			
23	224	0.5	Cc1ncsc1CCNc1ncnc2c1ncn2[C@@H]1O[C@H](CO)[C@@H](O)[C@H]1O [Example 12, N^6-[2-(4'-methylthiazol-5'-yl)-ethyl]adenosine]	17	4	
0.32	891	4.4	CCNC(=O)[C@H]1O[C@@H](n2cnc3c(NCCNc4nc5ccccc5s4)ncnc32)[C@H](O)[C@@H]1O [Example 23]	7	6	
41	191	0.24	OC[C@H]1O[C@@H](n2cnc3c(NCCc4nccs4)ncnc32)[C@H](O)[C@@H]1O [Example 13, N^6-[2-(2'-thiazolyl)ethyl]-adenosine]	> 10	3	
79.4	> 1000		Cc1nc(CCNc2ncnc3c2ncn3[C@@H]2O[C@H](CO)[C@@H](O)[C@H]2O)cs1 [Example 14, N^6-[2-(2'-methyl-4'-thiazolyl)-ethyl]adenosine]			
4	1000	11.9	OC[C@H]1O[C@@H](n2cnc3c(NCCNc4nc5ccccc5s4)ncnc32)[C@H](O)[C@@H]1O [Example 9, N^6-[2-(2'-aminobenzothia-zolyl)ethyl]adenosine]	4	5	
67.6	5250	18.8	CC(C)(Cc1cccs1)Nc1ncnc2c1ncn2[C@@H]1O[C@H](CO)[C@@H](O)[C@H]1O [Example 17, N^6-[2-(1,1-dimethyl-2'-thiophenyl)ethyl]adenosine]			

SMILES	IC50 [1] [nM]	IC50 [2] [nM]	EC50 [3, 6] [µM]	ED25 [4, 7] [µg/kg]	ED25 [4, 8] [µg/kg]	further results
C[C@H](Cc1cc2ccccc2s1)Nc1ncnc2c1ncn2[C@@H]1O[C@H](CO)[C@@H](O)[C@H]1O [Example 15, N^6-[(R)-1-methyl-2-(2'benzo-[b]-thiophenyl)ethyl]adenosine]		1000		1.4	1.5	EC50 ([3]; read-out: Vasorelaxation in Swine Coronary Artery/IC50 (μM), 50% reduction in tension, 3 μM PGF2α): 2.45 µM
